Data: paper PMC4357465, “Tool Compounds Robustly Increase Turnover of an Artificial Substrate by Glucocerebrosidase in Human Brain Lysates” (PLoS ONE, 2015)
“Also recorded” adds a separate entry of the source.

Legend:
recombinant GBA3 = biological target: T1, recombinant GBA3 (Homo sapiens, UniProt Q9H227); experiment: cell-free 4MUG assay with recombinant GBA3; type: biochemical; settings: for less potent against GBA3 than GBA1: selectivity GBA1 over GBA3
T1 construct: purchased R&D Systems 5969-GH-10
T1 sequence (Q9H227 1-469): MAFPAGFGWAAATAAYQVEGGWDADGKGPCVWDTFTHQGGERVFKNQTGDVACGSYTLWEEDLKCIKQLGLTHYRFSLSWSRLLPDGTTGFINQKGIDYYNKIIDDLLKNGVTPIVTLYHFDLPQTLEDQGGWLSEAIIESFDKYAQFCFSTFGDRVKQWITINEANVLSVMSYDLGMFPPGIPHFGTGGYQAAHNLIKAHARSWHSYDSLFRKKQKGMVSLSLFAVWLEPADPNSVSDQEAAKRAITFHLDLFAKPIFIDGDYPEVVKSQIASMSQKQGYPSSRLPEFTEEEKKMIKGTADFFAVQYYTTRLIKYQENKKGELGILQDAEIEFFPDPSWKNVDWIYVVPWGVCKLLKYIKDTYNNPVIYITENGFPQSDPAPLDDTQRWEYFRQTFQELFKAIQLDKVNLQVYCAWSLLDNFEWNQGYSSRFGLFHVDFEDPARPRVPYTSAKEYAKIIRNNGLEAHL
Experimental: After incubation, 100 μl of assay buffer was added to the plate. The assay buffer was composed of 0.1 M citric acid and 0.2 M sodium phosphate dibasic adjusted to pH = 5.4 unless stated otherwise (McIlvaine Buffer). […] For IC50 and EC50 experiments using compounds an assay buffer of pH 5.4 was used.
The substrate, 4-methylumbelliferyl β-D-glucopyranoside (4MUG, Sigma, M3633) was then added to the plate to a final concentration of 1.7 mM (25 μl). 4MUG was freshly solubilized in water at 37°C prior to each experiment. The recombinant protein, compound, assay buffer, and substrate were incubated at 37°C for 30 minutes.
In experiments directly comparing enzymatic activities of GBA1, GBA2 and GBA3 (S1 Fig., S2 Fig. c, d) the following conditions were used. […] A 10-fold intermediate solution of compound serial dilution was prepared in an assay buffer; half log dilutions were used. […] 2 mM solution of 4MUG was prepared in an assay buffer. To start the reaction, 4.5 μl/well of this solution was added to the enzyme plate and was incubated for 30 minutes at 37°C. To stop the reaction, a 1M glycine solution, adjusted to pH = 10 using 1M NaOH was used. […] To test the effect of sodium taurocholate (Sigma, T4009), the assay was performed using the same procedure described in this paragraph. The assay buffer contained either 0mM (same as above), 3 mM, 7 mM or 20 mM Sodium Taurocholate.

recombinant GBA2 = biological target: T2, recombinant GBA2 (Homo sapiens, UniProt Q9HCG7); experiment: cell-free 4MUG assay with recombinant GBA2; type: biochemical; settings: dose response, within the concentrations tested
T2 construct: purchased Abcam ab163631
T2 sequence (Q9HCG7 1-927): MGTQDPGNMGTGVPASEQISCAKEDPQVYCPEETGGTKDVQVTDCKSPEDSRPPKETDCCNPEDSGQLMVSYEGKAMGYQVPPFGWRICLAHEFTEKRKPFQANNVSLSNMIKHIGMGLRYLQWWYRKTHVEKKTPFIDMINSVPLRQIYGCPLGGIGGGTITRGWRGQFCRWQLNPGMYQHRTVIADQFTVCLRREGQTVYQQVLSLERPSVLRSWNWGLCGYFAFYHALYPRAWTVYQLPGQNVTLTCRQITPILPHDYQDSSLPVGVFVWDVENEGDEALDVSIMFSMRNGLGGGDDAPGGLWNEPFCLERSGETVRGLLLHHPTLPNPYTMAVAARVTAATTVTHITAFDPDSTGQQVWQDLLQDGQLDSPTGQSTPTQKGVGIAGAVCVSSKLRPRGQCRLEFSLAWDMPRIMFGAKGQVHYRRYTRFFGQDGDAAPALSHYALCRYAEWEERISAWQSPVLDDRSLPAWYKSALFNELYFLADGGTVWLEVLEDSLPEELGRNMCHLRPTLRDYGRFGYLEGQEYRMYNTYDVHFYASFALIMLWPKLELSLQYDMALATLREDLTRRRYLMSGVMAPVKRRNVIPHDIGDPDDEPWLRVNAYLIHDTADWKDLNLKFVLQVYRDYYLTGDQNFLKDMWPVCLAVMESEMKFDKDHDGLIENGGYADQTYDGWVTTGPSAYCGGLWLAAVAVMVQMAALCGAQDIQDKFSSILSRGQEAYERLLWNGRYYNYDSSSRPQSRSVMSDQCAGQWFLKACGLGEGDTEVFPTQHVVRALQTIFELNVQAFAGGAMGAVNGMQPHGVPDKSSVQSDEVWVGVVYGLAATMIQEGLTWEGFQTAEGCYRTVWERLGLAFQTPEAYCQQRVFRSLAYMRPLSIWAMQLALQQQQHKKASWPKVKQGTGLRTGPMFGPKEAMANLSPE
Experimental: The assay buffer consisted of 44 mM Citric Acid, 111 mM Na2HPO4, pH 5.5, 0.1% Triton X-100. […] A 10-fold intermediate solution of compound serial dilution was prepared in an assay buffer; half log dilutions were used. In a black 384-well plate (ThermoFisher, 267461) we added 5 μl of enzyme solution and 1 μl of compounds when appropriate, and incubated for 30 minutes at room temperature. 2 mM solution of 4MUG was prepared in an assay buffer. To start the reaction, 4.5 μl/well of this solution was added to the enzyme plate and was incubated for 30 minutes at 37°C. To stop the reaction, a 1M glycine solution, adjusted to pH = 10 using 1M NaOH was used. The fluorescent signal was detected using the Envision Multilabel Plate Reader (Perkin Elmer) at excitation = 355nm and emission = 450nm.

In the case of `O[C@H]1[C@H](O)[C@@H](O)[C@@H]2O[C@@H]2[C@@H]1O` [CBE], the “effect on activity of recombinant GBA3” value (recombinant GBA3; dose response, within the concentrations tested) is reported as “did not inhibit; also recorded: does not alter activity” and the “effect on activity of recombinant GBA2” value (recombinant GBA2) is reported as “did not inhibit; also recorded: does not alter activity”.

`OC[C@H]1CNC[C@@H](O)[C@@H]1O` [Isofagomine, isofagomine] was tested, and the “effect on GBA3 activity” value (recombinant GBA3; 1 μM) was “did not have any substantial effect”, the “less potent against GBA3 than GBA1” value (recombinant GBA3) was > 100 fold and the “less potent against GBA3 than GBA1” value (recombinant GBA3; listed as isofagomine) was ≥ 100 fold. The “effect on activity of recombinant GBA2” value (recombinant GBA2) was “almost no effect” and the “effect on activity of recombinant GBA2” value (recombinant GBA2; listed as isofagomine) was “Minimal effect”.
